The source of these data is patent US10487313B2, “Efficient induction of definitive endoderm from pluripotent stem cells” (Novo Nordisk A/S, priority 2011, dated 2019).

Data set [1] has as its system hES cells (SA121) in mTeSR culture system. Description: Immunostainings and OCT4/SOX17+ cell quantification in the mTeSR system. The class given is cell-based, human. To be noted: Chir 7 μM or D'Amour. As for the experimental part:
hES cells (SA121) were cluster passaged from feeders (MEFs) to Matrigel (BD Biosciences) in mTeSR1 media ([…]) and passaged further with Dispase (BD Biosciences) according to the culture system protocol. DE was initiated once clusters started to touch each other Confluent cultures were washed once in RPMI1640 (Invitrogen) before 24 hour pre-treatment with 0,5-7μM CHIR99021 (Stemgent) in RPMI. Control cells were left untreated in RPMI and D'Amour cells were either left in RPMI or treated with AA (Peprotech)+Wnt3a (R&D Systems) without pre-treatment depending on experimental setup. After 24 hours, pretreated and control cells were washed once with RPMI before adding 100 ng/ml AA in RPMI. D'Amour cells were also treated with 100 ng/ml AA but with 0,2% FBS instead of B27. 24 h later, 2% B27 (Invitrogen) was added to the AA media for 2-3 d. Control cells were treated with B27 to prevent cell death and D'Amour cells with 2% FBS according to published protocol. Media was changed every day. Cells were washed in PBS+/+ and fixed in 4% formaldehyde for 30 min (10% formaline, VWR). The cells were then washed again three times in PBS and left in PBS (4° C.) until staining. Fixed cells were washed with PBS once, then permeabilized with 0.5% Triton X-100 in PBS for 6 min, washed in PBS and blocked with TNB buffer (0.1 M Tris-HCL pH 7.5, 0.15 M NaCl, 0.5% Blocking Reagent (Perkin Elmer)) for 30 min. Primary antibodies (goat-anti-SOX17 (AF1924, RnD Systems); goat-anti-Brachyury (AF2085, RnD Systems); mouse-anti-OCT4 (sc5279, SantaCruz Biotechnology); goat-anti-PDX1 (AB47383, Abcam)) were added in 0.1% TritonX-100+PBS for 1 h in RT or 4° C. O/N. After a thorough washing step in PBS, secondary antibodies were added together with DAPI in 0.1% Triton X-100+PBS for 45 min at RT, washed thoroughly in PBS and left in PBS until photodocumentation.

Data set [2] deals with SA121 hES and chIPS4 iPS cells. Description: Quantitative real-time PCR of PS and DE markers (Brachyury, SOX17) during DE induction. In kind it is cell-based, human. Here is the method: Human embryonic stem (hES) cells SA121 and chIPS4 (Cellartis) were grown on human fibronectin (Sigma) in DEF culture media (Cellartis) with 30 ng/ml bFGF (Invitrogen) and 10 ng/ml Noggin (Peprotech) in 6-96 well plates. Cells were single cell passaged with Rock inhibitor Y-27632 (Calbiochem) and seeded at a density of 40000 cells/cm2 for experiments. Experiments were initiated 4 d after passage.
Confluent cultures were washed once in RPMI1640 (Invitrogen) before 24 hour pre-treatment with 0,5-7μM CHIR99021 (Stemgent) in RPMI. Control cells were left untreated in RPMI and D'Amour cells were either left in RPMI or treated with AA (Peprotech)+Wnt3a (R&D Systems) without pre-treatment depending on experimental setup.
After 24 hours, pretreated and control cells were washed once with RPMI before adding 100 ng/ml AA in RPMI. D'Amour cells were also treated with 100 ng/ml AA but with 0,2% FBS instead of B27. 24 h later, 2% B27 (Invitrogen) was added to the AA media for 2-3 d. Control cells were treated with B27 to prevent cell death and D'Amour cells with 2% FBS according to published protocol. Media was changed every day.
RNA samples were collected after 24 h pre-treatment (D1), after 1 day of AA treatment (D2) and after 1-2 d of AA+B27 treatment (D3-4). Total RNA was extracted with the Rneasy Plus Mini kit (Qiagen) and quantitative real-time PCR was performed using the StepOnePLus system (Applied Biosystems).
Undifferentiated SA121 hES and chIPS4 iPS cells in DEF media (DO) were cultured either in RPMI without CHIR (Ctrl D1) or treated for 24 h with CHIR in RPMI (CHIR D1). The cells were then washed to ensure absence of CHIR and then both conditions were treated with 1 d AA (Ctrl and CHIR d2). […] T fold inductions after 24 h CHIR treatment spanned between 500-100000 compared to undifferentiated cells (d0). T protein levels were also confirmed with ICC (FIG. 2C).
The efficiency levels for both T and SOX17 were highly robust (n>60) and confirmed with IHC and SOX17 quantifications (FIG. 2C and Table 2.). […] SOX17 expression peaked already after one day of AA treatment when cells were subjected to CHIR for 24 h before AA induction.
hES SA121 and ChIPS4 cells were treated with either CHIR (3 μM), BIO (0.5 μM), Wnt3a (200 ng/ml) or AA alone (100 ng/ml) for 24 h prior to AA addition to show CHIR specificity (d1). Additionally, D'Amour (protocol as described in Kroon et al 2008) was tested in parallel.
Chir was titrated at concentrations between 1-7 uM and analyzed after 24 h Chir treatment (D1) and after 2 d of following AA treatment (D3).
A general note: In qPCR the cycle at which signal appears reflects the starting amount.

Setting [3] is: 24 h CHIR (2-7 μM) in RPMI-1640, then AA containing medium.

SMILES strings stand for the structures. Entries after “also recorded” stand apart in the source; their conditions may differ.

On to `Cc1c[nH]c(-c2cnc(NCCNc3ccc(C#N)cn3)nc2-c2ccc(Cl)cc2Cl)n1` [CHIR, CHIR99021], for which the “Oct4+ cell quantification” value is on record as 6.97 in data set [1] (D3, Exp ME16b); 2.53 in data set [1] (D3, Exp ME18b); 0.95 in data set [1] (D3, Exp ME21a); 3.5 in data set [1] (D3, Mean of three experiments). Besides, the “Sox17+ cell quantification” value in data set [1] (D3, Exp ME16b) is 62.62; in data set [1] (D3, Exp ME18b) it was 82.87; in data set [1] (D3, Exp ME21a), 91.36; in data set [1] (D3, Mean of three experiments), 79.0. The “time of SOX17 mRNA expression peak” value in data set [2] (setting [3]) came to 2 days. Besides, the “time of SOX17 protein expression peak” value in data set [2] (setting [3]) fell in the range of 3 to 4 days. In addition, in data set [2] (CHIR 1 uM, 2 d after AA treatment (D3)), the Sox17 expression entry is “significantly lower”. For the same compound, the Brachyury induction result in data set [2] (CHIR 3 uM, after 24 h treatment (D1)) is “significantly seen; also recorded: significantly upregulated”. For the same compound, the “DE induction after subsequent AA stimulation” value in data set [2] (CHIR concentrations below 2 μM, after 72 hrs) is on record as “not induced”. In addition, the “Brachyury (T) fold induction compared to undifferentiated cells” value in data set [2] (after 24 h CHIR treatment (D1), n>60) was 500-100000 fold.
